In patent US4707495A, “Peptic ulcer treatment method” (Ortho Pharmaceutical, priority 1985, dated 1987):

Assays:
[1] = system: submucosal lesions; test: Cytoprotection: inhibition of submucosal gastric lesions induced by oral 50 percent ethanol; format: in vivo, Male Charles River rats; details: for Percent Inhibition of Submucosal Lesions, Oral: 2 percent aqueous ethanol vehicle; for Percent Inhibition of Submucosal Lesions, Topical: topical to shaved skin, 25 percent ethanolic water; for cytoprotection when applied topically (in words): topical, at the same unit dose as effective orally
Procedure: Male Charles River rats weighing about 200 g each were fasted overnight, but were allowed water ad libitum. Rats used for the topical administration of this invention were shaved on their dorsal sides one day prior to being used as host mammals.
Compositions containing the active ingredient were prepared for oral administration by dissolving a prostaglandin in a 2 percent aqueous ethanolic solution that was administered in a dose volume of 0.2 milliliters per kilogram (ml/kg) of body weight at the unit dosages shown in Table 1 hereinafter. […] A fixed concentration for each dose was applied to the skin in a volume of 0.2 ml per rat.
Gastric lesions were induced by oral administration of 1.0 ml of a 50 percent ethanolic water solution that was administered one hour after administration of each of the active ingredients. The rats were sacrificed by asphyxiation one hour after gastric lesion induction using carbon dioxide. The rat stomachs were then removed, inflated with water, opened along the greater curvature, and were laid out on a flat surface. The presence of mucosal bleeding was noted, the mucosal layers were wiped, and the presence or absence of hemorrhagic sites was recorded.
The incidences of lesions compared to controls were statistically analyzed by either the method of Chi-square using Yate's correction or Fisher's Exact Probability Test.

[2] = system: gastric acid secretion; test: Inhibition of gastric acid secretion (pylorus ligation); format: in vivo, Male Charles River CD rats; details: for Percent Inhibition of Acid, Intraduodenal / Percent Inhibition of Acid, Topical: 4 h after pylorus ligation; for Percent Inhibition of Acid, Intraduodenal: 2 percent ethanolic water; for Percent Inhibition of Acid, Topical: topical to shaved skin, 25 percent ethanolic water
Procedure: Male Charles River CD rats weighing about 180 g each were shaved on their dorsal sides and derpived of food for a time period of 18 hours prior to use. Water was permitted ad libitim during that time, but was removed during the times at which the rats were studied as host mammals.
Compositions containing the active ingredient were administered intraduodenally at 1 ml/kg or were applied to directly contact the shaved skin at 0.2 ml/animal at the time the pylorus of each animal was ligated.
The animals were sacrificed by asphyxiation four hours after pylorus ligation using carbon dioxide. The gastric contents were collected in graduated centrifuge tubes that were centrifuged. The centrifugally separated supernatents were then analyzed for volume and acidity. Acid concentration (secretion) was determined by electrometric titration of a 1 ml aliquot of the recovered gastric juice against 0.1N NaOH to a pH value of 7.4.
Treated groups were compared to the control and statistical differences were declared by the method of least significant differences.
(treatment-control)/control×100%

[3] = system: indomethacin-induced gastric lesions; details: oral administration; cited from earlier work
[4] = system: gastrointestinal mucosa; details: in vivo; cited from earlier work
[5] = system: gastric acid secretion; details: laboratory animals and man; cited from earlier work
[6] = system: gastric acid secretion; details: given orally to rats, at any dose; cited from earlier work
[7] = 5 μg/kg (estimate based on 200 g rat)
[8] = 25 μg/kg, lesions by 50 percent ethanol 1 h after agent
[9] = 25 μg/kg (estimate based on 200 g rat)

With `COC(=O)CCC=C=CC[C@H]1C(=O)C[C@@H](O)[C@@H]1/C=C/C(O)COc1ccccc1` (relative stereo) [Enprostil, 7-[3-hydroxy-2-(3-hydroxy-4-phenoxy-1-butenyl)-5-oxocyclopentyl]-4,5-heptad ienoic acid methyl ester] the “Percent Inhibition of Submucosal Lesions, Oral” value (from here on “Percent Inhibition … Oral”) ([1]; 5 μg/kg) was 100%, the “Percent Inhibition of Submucosal Lesions, Topical” value [1, 7] was 100% and the “cytoprotection when applied topically (in words)” value (from here on “cytoprotection”) [1] was “effective at the same oral dose when applied externally”. The “Percent Inhibition of Acid, Intraduodenal” value ([2]; 1.0 mg/kg) was 71% and the “Percent Inhibition of Acid, Topical” value ([2]; 1.0 mg/kg) was 32%.

For `CCCCC(C)(C)[C@H](O)/C=C/[C@H]1[C@H](O)CC(=O)[C@@H]1C/C=C\CCCC(=O)O` [dmPGE2, (5Z,11α,13E,15R)-11,15-dihydroxy-16,16-dimethyl-9-oxo-prosta-5,13-1-o ic acid acid], the “Percent Inhibition … Oral” value ([1]; 5 μg/kg) was 100%, the “Percent Inhibition of Submucosal Lesions, Topical” value [1, 7] was 100% and the “cytoprotection” value [1] was “effective at the same oral dose when applied externally”. The “Percent Inhibition of Acid, Intraduodenal” value ([2]; 1.0 mg/kg) was 29% and the “Percent Inhibition of Acid, Topical” value ([2]; 1.0 mg/kg) was 26%.

In the case of `CCCCC[C@H](O)/C=C/[C@H]1C=CC(=O)[C@@H]1CCCCCCC(=O)O` [PGA1], the “protection from indomethacin-induced gastric lesions” value [3] is listed as “does not protect rats from indomethacin-induced gastric lesions”.

In the case of `CCCCC(C)(C)C(O)/C=C/[C@H]1[C@H](C)CC(=O)[C@@H]1C/C=C\CCCC(=O)O` (relative stereo) [Trimoprostil, (±)9-oxo-11α-methyl-15-hydroxy-16,16-dimethyl-5-cis,13-trans-prost adienoic acid], the “Percent Inhibition of Acid, Intraduodenal” value ([2]; 8.0 mg/kg) is reported as 38%, the “Percent Inhibition of Acid, Topical” value ([2]; 8.0 mg/kg) is reported as 9% and the “inhibition of gastric acid when applied topically (in words)” value ([2]; topical, at the unit dosage effective intraduodenally) is reported as “ineffective at significantly inhibiting production of gastric acid, when applied topically”.

For `CN/C(=N/CCSCc1nc[nH]c1C)NC#N` [cimetidine], the cytoprotective activity [4] is listed as “not cytoprotective in the models employed”.

For `CCCCC[C@H](O)/C=C/[C@H]1[C@H](O)CC(=O)[C@@H]1CCCCCCC(=O)O` [PGE1, 9-oxo-11 alpha,15-dihydroxy-13-trans-prostenoic acid], the “Percent Inhibition … Oral” value [1, 8] was 60%, the “Percent Inhibition of Submucosal Lesions, Topical” value [1, 9] was 10% and the “cytoprotection” value [1] was “ineffective at providing cytoprotection when applied topically”. The gastric antisecretory activity [5] was “have gastric antisecretory activity in both laboratory animals and man”.

For `CCCCC(C)(O)C/C=C/[C@H]1[C@H](O)CC(=O)[C@@H]1CCCCCCCO` (stereo partly drawn) [Rioprostil, (11α,13E)-1,11,16-trihydroxy-16-methyl-prost-13-en-9-one], the “Percent Inhibition … Oral” value [1, 8] was 87%, the “Percent Inhibition of Submucosal Lesions, Topical” value [1, 9] was 75% and the “cytoprotection” value [1] was “effective at the same oral dose when applied externally”. For the same molecule, the “Percent Inhibition of Acid, Intraduodenal” value ([2]; 8.0 mg/kg) was 35% and the “Percent Inhibition of Acid, Topical” value ([2]; 8.0 mg/kg) was 37%.

For `CCCCC(C)(O)C/C=C/[C@H]1[C@H](O)CC(=O)[C@@H]1CCCCCCC(=O)OC` (mixture of isomers) [Misoprostol, (±)(11α,13E)-11,16-dihydroxy-16-methyl-9-oxo-prost-13-en-1-oic acid methyl ester], the “Percent Inhibition … Oral” value ([1]; 100 μg/kg) was 87%, the “Percent Inhibition of Submucosal Lesions, Topical” value ([1]; 100 μg/kg (estimate based on 200 g rat)) was 75% and the “cytoprotection” value [1] was “effective at the same oral dose when applied externally”. For the same molecule, the “Percent Inhibition of Acid, Intraduodenal” value ([2]; 8.0 mg/kg) was 38% and the “Percent Inhibition of Acid, Topical” value ([2]; 8.0 mg/kg) was 43%.

For `CCCCC[C@H](O)/C=C/[C@H]1C(=O)C[C@H](O)[C@@H]1C/C=C\CCCC(=O)O` [PGD2], the “protection from indomethacin-induced gastric lesions” value [3] is listed as “does not protect rats from indomethacin-induced gastric lesions”.

In the case of `CCCCC[C@H](O)/C=C/[C@H]1[C@H](O)CC(=O)[C@@H]1C/C=C\CCCC(=O)O` [PGE2, 9-oxo-11α,15-dihydroxy-5-cis,13-transprostadienoic acid], the “Percent Inhibition … Oral” value [1, 8] is reported as 40%, the “Percent Inhibition of Submucosal Lesions, Topical” value [1, 9] is reported as 20% and the “cytoprotection” value [1] is reported as “ineffective at providing cytoprotection when applied topically”. The gastric antisecretory activity [5] was “have gastric antisecretory activity in both laboratory animals and man”.

In the case of `CCCCC(C)(C)[C@H](O)/C=C/[C@H]1C=CC(=O)[C@@H]1C/C=C\CCCC(=O)O` [16,16-dimethyl PGA2], the cytoprotective activity [4] is given as “cytoprotective” and the antisecretory activity [6] is given as “not antisecretory at any dose when given orally to rats”.

In the case of `CCCCC[C@@](C)(O)/C=C/[C@@H]1[C@@H](C/C=C\CCCC(=O)O)[C@H](O)C[C@H]1O` [15(R)-15 methyl PGF2β], the cytoprotective activity [4] is given as “cytoprotective” and the antisecretory activity [6] is given as “not antisecretory at any dose when given orally to rats”.

For `C[N+]1(C)[C@@H]2C[C@@H](OC(=O)[C@H](CO)c3ccccc3)C[C@H]1[C@@H]1O[C@@H]12` (stereo in doubt) [methscopolamine bromide], the cytoprotective activity [4] is listed as “not cytoprotective in the models employed”.
